Reference: patent US6869913B1, “Pyridazin-3-one derivatives, their use and intermediates for their production” (Sumitomo Chemical Company, Limited, priority 1995, dated 2005)

How the values were obtained:
Assay type in all cases: in vivo
[1] = test system: entireleaf morningglory (Ipomoea hederacea var. integriuscula); assay: Test Example 1: foliar treatment on upland fields; settings: 500 g/ha active ingredient; foliar spray; examined 19 days after application
Experimental: (§1) Cylindrical plastic pots of 10 cm in diameter and 10 cm in depth were filled with soil, in which the seeds of […] (Ipomoea hederacea var. integriuscula) and velvetleaf (Abutilon theophrash) were sowed, and the test plants were grown in a greenhouse for 19 days. Each of the test compounds listed below was formulated into an emulsifiable concentrate according to Formulation Example 2, which was diluted with water containing a spreading agent to a prescribed concentration. The dilution was uniformly sprayed over the foliage of the test plants with a sprayer at a volume of 1000 liters per hectare. After the application, the test plants were grown in the greenhouse for 19 days, and the herbicidal activity was examined.

[2] = test system: velvetleaf (Abutilon theophrash); assay: Test Example 1: foliar treatment on upland fields; settings: 500 g/ha active ingredient; foliar spray; examined 19 days after application
Experimental: as §1

[3] = test system: barnyardgrass (Echinochloa crus-galli); assay: Test Example 2: foliar treatment on upland fields; parameters: key: rating; 4–5 = excellent activity, 3 or lower = insufficient; settings: 32 g/ha active ingredient; foliar spray; examined 19 days after application
Source text: (§2) The herbicidal activity is excellent when rated at “4” or “5” but insufficient when rated at “3” or lower. The phytotoxicity is no problematic on practical use when rated at “0” or “1” but not allowed when rated at “2” or higher.
(§3) Cylindrical plastic pots of 10 cm in diameter and 10 cm in depth were filled with soil, in which the seeds of barnyardgrass (Echinochloa crus-galli), entireleaf morningglory (Ipomoea hederacea var. integriuscula) and velvetleaf (Abutilon theophrash) were sowed, and the test plants were grown in a greenhouse for 19 days. Each of the test compounds listed below was formulated into an emulsifiable concentrate according to Formulation Example 2, which was diluted with water containing a spreading agent to a prescribed concentration. The dilution was uniformly sprayed over the foliage of the test plants with a sprayer at a volume of 1000 liters per hectare. After the application, the test plants were grown in the greenhouse for 19 days, and the herbicidal activity was examined.

[4] = test system: entireleaf morningglory (Ipomoea hederacea var. integriuscula); assay: Test Example 2: foliar treatment on upland fields; parameters: key: rating; 4–5 = excellent activity, 3 or lower = insufficient; settings: 32 g/ha active ingredient; foliar spray; examined 19 days after application
Source text: as §2, §3

[5] = test system: velvetleaf (Abutilon theophrash); assay: Test Example 2: foliar treatment on upland fields; parameters: key: rating; 4–5 = excellent activity, 3 or lower = insufficient; settings: 32 g/ha active ingredient; foliar spray; examined 19 days after application
Source text: as §2, §3

[6] = test system: entireleaf morningglory (Ipomoea hederacea var. integriuscula); assay: Test Example 3: soil surface treatment on upland fields; settings: 500 g/ha active ingredient; soil surface spray; examined after 19 days
Experimental: (§4) Cylindrical plastic pots of 10 cm in diameter and […] in depth were filled with soil, in which the seeds of […] (Ipomoea hederacea var. integriuscula) and velvetleaf (Abutilon theophrash) were sowed. Each of the test compounds listed below was formulated into an emulsifiable concentrate according to Formulation Example 2, which was diluted with water to a prescribed concentration. The dilution was uniformly sprayed over the soil surface in the pots with a sprayer at a volume of 1000 liters per hectare. After the application, the test plants were grown in a greenhouse for 19 days, and the herbicidal activity was examined.

[7] = test system: velvetleaf (Abutilon theophrash); assay: as above; settings: 500 g/ha active ingredient; soil surface spray; examined after 19 days
Experimental: as §4

[8] = test system: barnyardgrass (Echinochloa oryzicola); assay: Test Example 4: flooding treatment on paddy fields; settings: application amount of active ingredient 250 g/ha, examined 19 days after application, index 0 to 5
Experimental: Cylindrical plastic pots of 9 cm in diameter and 11 cm in depth were filled with soil, in which the seeds of barnyardgrass (Echinochloa oryzicola) were sowed. These pots were flooded to form a paddy field, and the test plants were grown in a greenhouse for 7 days. Each of the test compounds listed below was formulated into an emulsifiable concentrate according to Formulation Example 2, which was diluted with water to a prescribed concentration. The dilution was applied to the water surface in the pots at a volume of 50 liters per hectare. After the application, the test plants were grown in the greenhouse for 19 days, and the herbicidal activity was examined.

COC(=O)C(C)Sc1cc(-n2ncc(C(F)(F)F)cc2=O)c(F)cc1Cl (centres unmarked) [Compound 1-1221, Methyl 2-{2-chloro-4-fluoro-5-(5-trifluoromethyl-3-pyridazinon-2-yl)phenylthio}propionate]
5: Herbicidal activity Entireleaf morningglory [1] | Herbicidal activity Velvetleaf [2] | Herbicidal activity Barnyardgrass [3] | Herbicidal activity Entireleaf morningglory [4] | Herbicidal activity Velvetleaf [5] | Herbicidal activity Entireleaf morningglory [6] | Herbicidal activity Velvetleaf [7] | Herbicidal activity Barnyardgrass [8]

Cc1cc2c(-n3ncc(C(F)(F)F)c(C)c3=O)c(F)cc(Cl)c2o1 [Compound 3-139]
5: Herbicidal activity Entireleaf morningglory [1] | Herbicidal activity Velvetleaf [2] | Herbicidal activity Barnyardgrass [8]

Cc1c(C(F)(F)F)cnn(-c2c(F)cc(Cl)c3c2CC(C)(C)O3)c1=O [Compound 4-451]
5: Herbicidal activity Entireleaf morningglory [1] | Herbicidal activity Velvetleaf [2] | Herbicidal activity Barnyardgrass [8]

O=c1cc(C(F)(F)F)cnn1-c1ccc(Cl)cc1 [Compound 1-332, 2-(4-chlorophenyl)-5-trifluoromethylpyridazin-3-one]
5: Herbicidal activity Entireleaf morningglory [1] | Herbicidal activity Velvetleaf [2] | Herbicidal activity Entireleaf morningglory [6] | Herbicidal activity Velvetleaf [7] | Herbicidal activity Barnyardgrass [8]

Cc1c(C(F)(F)F)cnn(-c2cc(NS(=O)(=O)CCl)c(Cl)cc2F)c1=O [Compound 1-369, N-{2-chloro-4-fluoro-5-(4-methyl-5-trifluoromethyl-3-pyridazinon-2-yl)phenyl}chloromethanesulfonamide]
5: Herbicidal activity Entireleaf morningglory [1] | Herbicidal activity Velvetleaf [2] | Herbicidal activity Barnyardgrass [3] | Herbicidal activity Entireleaf morningglory [4] | Herbicidal activity Velvetleaf [5] | Herbicidal activity Entireleaf morningglory [6] | Herbicidal activity Velvetleaf [7] | Herbicidal activity Barnyardgrass [8]

Cc1c(C(F)(F)F)cnn(-c2cc(OC(C)C)c(Cl)cc2F)c1=O [Compound 1-476, 2-[2-fluoro-4-chloro-5-isopropoxyphenyl]4-methyl-5-trifluoromethylpyridazin-3-one]
5: Herbicidal activity Entireleaf morningglory [1] | Herbicidal activity Velvetleaf [2] | Herbicidal activity Entireleaf morningglory [6] | Herbicidal activity Velvetleaf [7] | Herbicidal activity Barnyardgrass [8]

CCOC(=O)C(C)Sc1cc(-n2ncc(C(F)(F)F)cc2=O)c(F)cc1Cl (centres unmarked) [Compound 1-1222, Ethyl 2-{2-chloro-4-fluoro-5-(5-trifluoromethyl-3-pyridazinon-2-yl)phenylthio}propionate]
5: Herbicidal activity Entireleaf morningglory [1] | Herbicidal activity Velvetleaf [2] | Herbicidal activity Barnyardgrass [3] | Herbicidal activity Entireleaf morningglory [4] | Herbicidal activity Velvetleaf [5] | Herbicidal activity Entireleaf morningglory [6] | Herbicidal activity Velvetleaf [7] | Herbicidal activity Barnyardgrass [8]

CCC(C)n1c(=O)sc2cc(F)c(-n3ncc(C(F)(F)F)c(C)c3=O)cc21 (centres unmarked) [Compound 2-328]
5: Herbicidal activity Entireleaf morningglory [1] | Herbicidal activity Velvetleaf [2] | Herbicidal activity Entireleaf morningglory [6] | Herbicidal activity Velvetleaf [7] | Herbicidal activity Barnyardgrass [8]

Cc1c(C(F)(F)F)cnn(-c2cc(O)c(Cl)cc2F)c1=O [Compound 1-391, 2-[2-fluoro-4-chloro-5-hydroxyphenyl]4-methyl-5-trifluoromethylpyridazin-3-one]
5: Herbicidal activity Entireleaf morningglory [1] | Herbicidal activity Velvetleaf [2] | Herbicidal activity Entireleaf morningglory [6] | Herbicidal activity Velvetleaf [7] | Herbicidal activity Barnyardgrass [8]

Cc1c(C(F)(F)F)cnn(-c2cc(NS(C)(=O)=O)c(Cl)cc2F)c1=O [Compound 1-367, N-[2-chloro-4-fluoro-5-(4-methyl-5-trifluoromethyl-3-pyridazinon-2-yl)phenyl]methanesulfonamide]
5: Herbicidal activity Entireleaf morningglory [1] | Herbicidal activity Velvetleaf [2] | Herbicidal activity Entireleaf morningglory [6] | Herbicidal activity Velvetleaf [7] | Herbicidal activity Barnyardgrass [8]

CCOC(=O)C(C)Nc1cc(-n2ncc(C(F)(F)F)c(C)c2=O)c(F)cc1Cl (centres unmarked) [Compound 1-420, Ethyl 2-{2-chloro-4-fluoro-5-(4-methyl-5-trifluoromethyl-3-pyridazinon-2-yl)phenylamino}propionate]
5: Herbicidal activity Entireleaf morningglory [1] | Herbicidal activity Velvetleaf [2] | Herbicidal activity Barnyardgrass [3] | Herbicidal activity Entireleaf morningglory [4] | Herbicidal activity Velvetleaf [5] | Herbicidal activity Entireleaf morningglory [6] | Herbicidal activity Velvetleaf [7] | Herbicidal activity Barnyardgrass [8]

C#CCN1C(=O)COc2cc(F)c(-n3ncc(C(F)(F)F)c(C)c3=O)cc21 [Compound 2-251, 7-Fluoro-6-(4-methyl-5-trifluoromethyl-3-pyridazinon-2-yl)-4-propargyl-2H-1,4-benzoxazin-3-one]
5: Herbicidal activity Entireleaf morningglory [1] | Herbicidal activity Velvetleaf [2] | Herbicidal activity Barnyardgrass [3] | Herbicidal activity Entireleaf morningglory [4] | Herbicidal activity Velvetleaf [5] | Herbicidal activity Entireleaf morningglory [6] | Herbicidal activity Velvetleaf [7] | Herbicidal activity Barnyardgrass [8]

C#CCN1C(=O)COc2cc(F)c(-n3nc(C)c(C(F)(F)F)cc3=O)cc21 [Compound 2-821, 7-fluoro-6-(6-methyl-5-trifluoromethyl-3-pyridazinon-2-yl)-4-propargyl-2H-1,4-benzoxazin-3-one]
5: Herbicidal activity Entireleaf morningglory [1] | Herbicidal activity Velvetleaf [2] | Herbicidal activity Barnyardgrass [3] | Herbicidal activity Entireleaf morningglory [4] | Herbicidal activity Velvetleaf [5] | Herbicidal activity Entireleaf morningglory [6] | Herbicidal activity Velvetleaf [7] | Herbicidal activity Barnyardgrass [8]

COC(=O)C1(C)Cc2c(c(Cl)cc(F)c2-n2ncc(C(F)(F)F)c(C)c2=O)O1 (centres unmarked) [Compound 4-434]
5: Herbicidal activity Entireleaf morningglory [1] | Herbicidal activity Velvetleaf [2] | Herbicidal activity Barnyardgrass [3] | Herbicidal activity Entireleaf morningglory [4] | Herbicidal activity Velvetleaf [5] | Herbicidal activity Entireleaf morningglory [6] | Herbicidal activity Velvetleaf [7] | Herbicidal activity Barnyardgrass [8]

Cc1c(C(F)(F)F)cnn(-c2cc(OC(C)C)c(Br)cc2F)c1=O [Compound 1-1783, 2-(4-bromo-2-fluoro-5-isopropyloxyphenyl)-4-methyl-5-trifluoromethylpyridazin-3-one]
5: Herbicidal activity Entireleaf morningglory [1] | Herbicidal activity Velvetleaf [2] | Herbicidal activity Barnyardgrass [3] | Herbicidal activity Entireleaf morningglory [4] | Herbicidal activity Velvetleaf [5] | Herbicidal activity Entireleaf morningglory [6] | Herbicidal activity Velvetleaf [7] | Herbicidal activity Barnyardgrass [8]
